Results taken from the supplement of paper PMC10307832.

Key:
Assay in all cases: relative viability (nuclei count vs DMSO), 5 days (fraction); higher = more cells survive
[1] = tested on: NCI-H1975
In short: (§1)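 Relative viability is defined as nuclei in treated wells over nuclei in vehicle wells. Duplicate plates were run and medians reported. Lung cancer cell lines in 1536-well plates were dosed by pin tool one day after seeding, with one drug or with a fixed anchor-drug dose plus five library-drug doses (not always all listed) in √10 steps, and nuclei were counted after 5 days.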

[2] = tested on: HOP-62
In short: as §1

[3] = tested on: NCI-H1734
In short: as §1

[4] = tested on: NCI-H2347
In short: as §1

[5] = tested on: HCC-15
In short: as §1

[6] = tested on: SW 1573
In short: as §1

[7] = tested on: NCI-H2228
In short: as §1

[8] = tested on: NCI-H522
In short: as §1

[9] = tested on: SK-LU-1
In short: as §1

[10] = tested on: NCI-H1755
In short: as §1

[11] = tested on: LC-2-ad
In short: as §1

[12] = tested on: NCI-H647
In short: as §1

[13] = tested on: LOU-NH91
In short: as §1

[14] = tested on: NCI-H358
In short: as §1

[15] = tested on: NCI-H1915
In short: as §1

[16] = tested on: RERF-LC-KJ
In short: as §1

[17] = tested on: NCI-H2342
In short: as §1

[18] = tested on: NCI-H2126
In short: as §1

[19] = tested on: LXF-289
In short: as §1

[20] = tested on: NCI-H1792
In short: as §1

[21] = tested on: PC-3 [JPC-3]
In short: as §1

[22] = tested on: A-427
In short: as §1

[23] = tested on: NCI-H460
In short: as §1

SMILES: CC(C)Oc1cc(Nc2nc(N[C@@H](C)c3ccc(F)cn3)ncc2Cl)n[nH]1 [AZ23] + CCNC(=O)c1noc(-c2cc(C(C)C)c(O)cc2O)c1-c1ccc(CN2CCOCC2)cc1 [Luminespib] (partner 0.01 µM)
- relative viability ([1]; first compound 0.01 µM): 0.234
- relative viability ([1]; first compound 0.03162 µM): 0.195
- relative viability ([1]; first compound 0.3162 µM): 0.223
- relative viability ([2]; first compound 0.01 µM): 0.841
- relative viability ([2]; first compound 0.03162 µM): 0.981
- relative viability ([2]; first compound 0.3162 µM): 1.01
- relative viability ([3]; first compound 0.01 µM): 0.184
- relative viability ([3]; first compound 0.03162 µM): 0.181
- relative viability ([3]; first compound 0.3162 µM): 0.169
- relative viability ([4]; first compound 0.01 µM): 0.486
- relative viability ([4]; first compound 0.03162 µM): 0.62
- relative viability ([4]; first compound 0.3162 µM): 0.41
- relative viability ([5]; first compound 0.01 µM): 0.435
- relative viability ([5]; first compound 0.03162 µM): 0.243
- relative viability ([5]; first compound 0.3162 µM): 0.338
- relative viability ([6]; first compound 0.01 µM): 0.189
- relative viability ([6]; first compound 0.03162 µM): 0.164
- relative viability ([6]; first compound 0.3162 µM): 0.227
- relative viability ([7]; first compound 0.01 µM): 0.179
- relative viability ([7]; first compound 0.03162 µM): 0.141
- relative viability ([7]; first compound 0.3162 µM): 0.0999
- relative viability ([8]; first compound 0.01 µM): 1.06
- relative viability ([8]; first compound 0.03162 µM): 1.08
- relative viability ([8]; first compound 0.3162 µM): 1.15
- relative viability ([9]; first compound 0.03162 µM): 0.216
- relative viability ([9]; first compound 0.3162 µM): 0.18
- relative viability ([10]; first compound 0.01 µM): 0.293
- relative viability ([10]; first compound 0.03162 µM): 0.605
- relative viability ([10]; first compound 0.3162 µM): 0.634
- relative viability ([11]; first compound 0.01 µM): 1.26
- relative viability ([11]; first compound 0.03162 µM): 0.965
- relative viability ([11]; first compound 0.3162 µM): 0.93
- relative viability ([12]; first compound 0.01 µM): 0.125
- relative viability ([12]; first compound 0.03162 µM): 0.107
- relative viability ([12]; first compound 0.3162 µM): 0.149
- relative viability ([13]; first compound 0.01 µM): 0.387
- relative viability ([13]; first compound 0.03162 µM): 0.349
- relative viability ([13]; first compound 0.3162 µM): 0.324
- relative viability ([14]; first compound 0.01 µM): 0.416
- relative viability ([14]; first compound 0.03162 µM): 0.395
- relative viability ([14]; first compound 0.3162 µM): 0.349
- relative viability ([15]; first compound 0.01 µM): 1.17
- relative viability ([15]; first compound 0.03162 µM): 0.866
- relative viability ([15]; first compound 0.3162 µM): 0.805
- relative viability ([16]; first compound 0.01 µM): 1.34
- relative viability ([16]; first compound 0.03162 µM): 1.43
- relative viability ([16]; first compound 0.3162 µM): 1.38
- relative viability ([17]; first compound 0.01 µM): 0.658
- relative viability ([17]; first compound 0.03162 µM): 0.679
- relative viability ([17]; first compound 0.3162 µM): 0.718
- relative viability ([18]; first compound 0.01 µM): 0.954
- relative viability ([18]; first compound 0.03162 µM): 1
- relative viability ([18]; first compound 0.3162 µM): 0.875
- relative viability ([19]; first compound 0.01 µM): 0.884
- relative viability ([19]; first compound 0.03162 µM): 0.745
- relative viability ([19]; first compound 0.3162 µM): 0.598
- relative viability ([20]; first compound 0.01 µM): 0.305
- relative viability ([20]; first compound 0.03162 µM): 0.646
- relative viability ([20]; first compound 0.3162 µM): 0.466
- relative viability ([21]; first compound 0.01 µM): 0.581
- relative viability ([21]; first compound 0.03162 µM): 0.582
- relative viability ([21]; first compound 0.3162 µM): 0.637
- relative viability ([22]; first compound 0.01 µM): 0.844
- relative viability ([22]; first compound 0.03162 µM): 1.03
- relative viability ([22]; first compound 0.3162 µM): 1.03
- relative viability ([23]; first compound 0.01 µM): 0.0317
- relative viability ([23]; first compound 0.03162 µM): 0.0332
- relative viability ([23]; first compound 0.3162 µM): 0.0248
